Molecular target: Human immunodeficiency virus type 1 protease (Human immunodeficiency virus 1, UniProt Q72874)
Experiment: Binding affinity towards HIV-1 Protease

Going from `O=C(O)CCC(=O)NCCc1ccc(C2(c3ccc(CCNC(=O)CCC(=O)O)cc3)C34c5c6c7c8c9c%10c(c%11c%12c3c3c5c5c%13c6c6c7c7c9c9c%14c%10c%10c%11c%11c%12c%12c3c3c5c5c%13c%13c6c6c7c9c7c9c%14c%10c%10c%11c%11c%12c3c3c5c5c%13c6c7c6c9c%10c%11c3c56)C824)cc1` to `OC(c1ccccc1)C1(c2ccccc2)C23c4c5c6c7c8c9c(c%10c%11c2c2c4c4c%12c5c5c6c6c8c8c%13c9c9c%10c%10c%11c%11c2c2c4c4c%12c%12c5c5c6c8c6c8c%13c9c9c%10c%10c%11c2c2c4c4c%12c5c6c5c8c9c%10c2c45)C731` (stereo not drawn), the Ki falls from 5000 nM to 103 nM (49-fold). The second binds more tightly here.

`CC(C)C1CC(O)C(C(C)C)C23c4c5c6c7c8c9c(c%10c%11c2c2c4c4c%12c5c5c6c6c8c8c%13c9c9c%10c%10c%11c%11c2c2c4c4c%12c%12c5c5c6c8c6c8c%13c9c9c%10c%10c%11c2c2c4c4c%12c5c6c5c8c9c%10c2c45)C713` (stereo not drawn) gave a Ki of 150 nM.

— ChEMBL document CHEMBL1131004, “Optimizing the binding of fullerene inhibitors of the HIV-1 protease through predicted increases in hydrophobic desolvation” (J Med Chem, 1998)
